Laboratory results from patent US12187728B2 (Raze Therapeutics, Inc., priority 2015, dated 2025).

Molecular target: T1, Human MTHFD2 (Homo sapiens, UniProt P13995)
T1 construct: residues 36-350 in Uniport ID P13995; His6 (N); made in house; host or cells: E. coli
T1 sequence (P13995 36-350): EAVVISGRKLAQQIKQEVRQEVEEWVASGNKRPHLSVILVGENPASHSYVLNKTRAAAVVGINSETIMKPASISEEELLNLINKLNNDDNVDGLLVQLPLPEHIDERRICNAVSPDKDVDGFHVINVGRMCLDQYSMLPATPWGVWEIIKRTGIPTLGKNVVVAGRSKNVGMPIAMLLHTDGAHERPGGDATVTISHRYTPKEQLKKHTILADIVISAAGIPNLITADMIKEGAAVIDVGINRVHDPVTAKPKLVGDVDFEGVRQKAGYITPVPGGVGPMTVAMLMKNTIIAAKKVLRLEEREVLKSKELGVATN
Test: MTHFD2 Activity Assay (dehydrogenase activity, diaphorase/resazurin coupled fluorescence)
Assay type: biochemical
Details: inhibitory activity (IC50 and/or binding constant); 0.2 nM MTHFD2, 11 concentrations
Method in brief: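 His6-tagged MTHFD2 (res. 36-350), E. coli-expressed, at 0.2 nM preincubated with compound 15 min in Hepes pH 8.0/MgCl2/KH2PO4 buffer; 70 μM CH2-THF, 1 mM NAD+ added with resazurin/diaphorase, 30 min, EDTA stop. Resorufin fluorescence (ex 525/em 598); IC50 from 11-point 4-parameter fit.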

Row | Compound | IC50 [µM]
1 | Cc1ccc(Nc2nc3c(c(=O)n(Cc4cc5c(Cl)cccc5[nH]4)c(=O)n3C)n2C)nc1CCC(=O)O [Example 377, 3-(6-(1-((4-chloro-1H-indol-2-yl)methyl)-3,7-dimethyl-2,6-dioxo-2,3,6,7-tetrahydro-1H-purin-8-ylamino)-3-methylpyridin-2-yl)propanoic acid] | 0.01 to 1
2 | CN(C)C(=O)CCc1cccc(Nc2nc3c(c(=O)n(Cc4cc5c(Cl)cccc5[nH]4)c(=O)n3C)n2C)n1 [Example 329, 3-(6-(1-((4-chloro-1H-indol-2-yl)methyl)-3,7-dimethyl-2,6-dioxo-2,3,6,7-tetrahydro-1H-purin-8-ylamino)pyridin-2-yl)-N,N-dimethylpropanamide] | 0.01 to 1
3 | Cn1c(N[C@H]2CCNC2)nc2c1c(=O)n(Cc1ccc(Cl)c(Cl)c1)c(=O)n2C [Example 61, 1-[(3,4-dichlorophenyl)methyl]-3,7-dimethyl-8-{[(3S)-pyrrolidin-3-yl]amino}-2,3,6,7-tetrahydro-1H-purine-2,6-dione] | 1 to 5
4 | Cc1cccc2[nH]c(Cn3c(=O)c4c(nc(NC5CCCC(C(=O)O)C5)n4C)n(C)c3=O)cc12 (stereo not drawn) [Example 342, 3-(3,7-dimethyl-1-((4-methyl-1H-indol-2-yl)methyl)-2,6-dioxo-2,3,6,7-tetrahydro-1H-purin-8-ylamino)cyclohexanecarboxylic acid] | 0.01 to 1
5 | Cn1c(N[C@@H]2CCC[C@H](C(=O)O)C2)nc2c1c(=O)n(Cc1ccc(Cl)c(Cl)c1)c(=O)n2C (single isomer, unassigned) [Example 187, (1S,3R)-3-(1-(3,4-dichlorobenzyl)-3,7-dimethyl-2,6-dioxo-2,3,6,7-tetrahydro-1H-purin-8-ylamino)cyclohexanecarboxylic acid or (1R,3S)-3-(1-(3,4-dichlorobenzyl)-3,7-dimethyl-2,6-dioxo-2,3,6,7-tetrahydro-1H-purin-8-ylamino)cyclohexanecarboxylic acid] | 0.01 to 1
6 | Cn1c(N2CCC(N)C2)nc2c1c(=O)n(Cc1cc3c(Cl)cccc3[nH]1)c(=O)n2C (stereo not drawn) [Example 376] | 0.01 to 1
7 | COc1cc(Nc2nc3c(c(=O)n(Cc4cc5c(Cl)cccc5[nH]4)c(=O)n3C)n2C)ccn1 [Example 333, 1-[(4-chloro-1H-indol-2-yl)methyl]-8-[(2-methoxy-4-pyridyl)amino]-3,7-dimethyl-purine-2,6-dione] | 0.01 to 1
8 | Cn1c(NCCCO)nc2c1c(=O)n(Cc1ccc3sccc3c1)c(=O)n2C [Example 52, 1-(1-benzothiophen-5-ylmethyl)-8-[(3-hydroxypropyl)amino]-3,7-dimethyl-2,3,6,7-tetrahydro-1H-purine-2,6-dione] | 0.01 to 1
9 | Cn1c(Nc2cccc(N)n2)nc2c1c(=O)n(Cc1ccc(Cl)c(Cl)c1)c(=O)n2C [Example 150, 8-(6-aminopyridin-2-ylamino)-1-(3,4-dichlorobenzyl)-3,7-dimethyl-1H-purine-2,6(3H,7H)-dione] | 0.01 to 1
10 | Cn1cnc2c1c(=O)n(Cc1cc3ccccc3[nH]1)c(=O)n2C [Example 234, 1-((1H-indol-2-yl)methyl)-3,7-dimethyl-1H-purine-2,6(3H,7H)-dione] | 1 to 5
11 | CC(=O)NCCNc1nc2c(c(=O)n(Cc3ccc(Cl)c(Cl)c3)c(=O)n2C)n1C [Example 22, N-[2-({1-[(3,4-dichlorophenyl)methyl]-3,7-dimethyl-2,6-dioxo-2,3,6,7-tetrahydro-1H-purin-8-yl}amino)ethyl]acetamide] | 0.01 to 1
12 | C=Cc1nc2c(c(=O)n(Cc3ccc(Cl)c(Cl)c3)c(=O)n2C)n1C [Example 160, 1-(3,4-dichlorobenzyl)-3,7-dimethyl-8-vinyl-1H-purine-2,6(3H,7H)-dione] | 1 to 5
13 | C[C@H](CCO)Nc1nc2c(c(=O)n(Cc3ccc(Cl)c(Cl)c3)c(=O)n2C)n1C [Example 27, 1-[(3,4-dichlorophenyl)methyl]-8-{[(2R)-4-hydroxybutan-2-yl]amino}-3,7-dimethyl-2,3,6,7-tetrahydro-1H-purine-2,6-dione] | 0.01 to 1
14 | Cn1c(-n2cc(N)cn2)nc2c1c(=O)n(Cc1ccc(Cl)c(Cl)c1)c(=O)n2C [Example 136] | 0.01 to 1
15 | Cn1c(C(N)CC2CC2)nc2c1c(=O)n(Cc1cc3c(Cl)cccc3[nH]1)c(=O)n2C (stereo not drawn) [Example 442] | 0.01 to 1
16 | Cn1c(Nc2ccc(CC(N)=O)cc2)nc2c1c(=O)n(Cc1cc3c(Cl)cccc3[nH]1)c(=O)n2C [Example 431, 2-[4-[[1-[(4-chloro-1H-indol-2-yl)methyl]-3,7-dimethyl-2,6-dioxo-purin-8-yl]amino]phenyl]acetamide] | 0.01 to 1
17 | Cn1c(N[C@H]2CC[C@@H](CO)C2)nc2c1c(=O)n(Cc1cc3ccccc3[nH]1)c(=O)n2C (stereo in doubt) [Example 317, 1-((1H-indol-2-yl)methyl)-8-((1S,3R)-3-(hydroxymethyl)cyclopentylamino)-3,7-dimethyl-1H-purine-2,6(3H,7H)-dione] | 0.01 to 1
18 | COc1nc2c(c(=O)n(Cc3cc4cccc(Cl)c4[nH]3)c(=O)n2C)n1C [Example 421, 1-[(7-chloro-1H-indol-2-yl)methyl]-8-methoxy-3,7-dimethyl-purine-2,6-dione] | 0.01 to 1
19 | CN(C)CCNc1nc2c(c(=O)n(Cc3ccc(Cl)c(Cl)c3)c(=O)n2C)n1C [Example 40, 1-[(3,4-dichlorophenyl)methyl]-8-{[2-(dimethylamino)ethyl]amino}-3,7-dimethyl-2,3,6,7-tetrahydro-1H-purine-2,6-dione] | 1 to 5
20 | COc1cc(Cn2c(=O)c3c(nc(NCCCO)n3C)n(C)c2=O)ccc1Cl [Example 96, 1-[(4-chloro-3-methoxyphenyl)methyl]-8-[(3-hydroxypropyl)amino]-3,7-dimethyl-2,3,6,7-tetrahydro-1H-purine-2,6-dione] | 1 to 5
21 | Cn1c(Nc2ccc3c(c2)NC(=O)CCC3)nc2c1c(=O)n(Cc1ccc(Cl)c(Cl)c1)c(=O)n2C [Example 109, 1-(3,4-dichlorobenzyl)-3,7-dimethyl-8-(2-oxo-2,3,4,5-tetrahydro-1H-benzo[b]azepin-8-ylamino)-1H-purine-2,6(3H,7H)-dione] | 0.01 to 1
22 | Cn1c(Cn2c(=O)c3c(nc(N[C@H]4CC[C@@H](O)C4)n3C)n(C)c2=O)cc2ccccc21 (racemic) [Example 179, (±)-8-((cis)-3-hydroxycyclopentylamino)-3,7-dimethyl-1-((1-methyl-1H-indol-2-yl)methyl)-1H-purine-2,6(3H,7H)-dione] | 0.01 to 1
23 | Cn1c(N[C@H]2CC[C@H](O)C2)nc2c1c(=O)n(Cc1ccc(Cl)c(Cl)c1)c(=O)n2C (single isomer, unassigned) [Example 70, 1-(3,4-dichlorobenzyl)-8-((1S,3S)-3-hydroxycyclopentylamino)-3,7-dimethyl-1H-purine-2,6(3H,7H)-dione or 1-(3,4-dichlorobenzyl)-8-((1R,3R)-3-hydroxycyclopentylamino)-3,7-dimethyl-1H-purine-2,6(3H,7H)-dione] | 0.01 to 1
24 | Cn1c(Nc2ccnc([C@H]3C[C@@H]3C(=O)O)c2)nc2c1c(=O)n(Cc1cc3c(Cl)cccc3[nH]1)c(=O)n2C (racemic) [Example 321, (±)-trans-2-(4-((1-((4-chloro-1H-indol-2-yl)methyl)-3,7-dimethyl-2,6-dioxo-2,3,6,7-tetrahydro-1H-purin-8-yl)amino)pyridin-2-yl)cyclopropanecarboxylic acid] | 0.01 to 1
25 | Cn1c(NC2CNC(=O)C2)nc2c1c(=O)n(Cc1cc3ccccc3[nH]1)c(=O)n2C (racemic) [Example 214, (±)-1-((1H-indol-2-yl)methyl)-3,7-dimethyl-8-(5-oxopyrrolidin-3-ylamino)-1H-purine-2,6(3H,7H)-dione] | 0.01 to 1
26 | Cn1c(C(N)C2CCCC2)nc2c1c(=O)n(Cc1cc3c(Cl)cccc3[nH]1)c(=O)n2C (stereo not drawn) [Example 464, 8-(amino(cyclopentyl)methyl)-1-((4-chloro-1H-indol-2-yl)methyl)-3,7-dimethyl-3,7-dihydro-1H-purine-2,6-dione] | 0.01 to 1
27 | CCN(CC)C(=O)CCc1nccc(Nc2nc3c(c(=O)n(Cc4cc5c(Cl)cccc5[nH]4)c(=O)n3C)n2C)n1 [Example 426, 3-(4-(1-((4-chloro-1H-indol-2-yl)methyl)-3,7-dimethyl-2,6-dioxo-2,3,6,7-tetrahydro-1H-purin-8-ylamino)pyrimidin-2-yl)-N,N-diethylpropanamide] | 0.01 to 1
28 | Cn1c(Nc2cccc([C@@H]3C[C@H]3C(=O)O)n2)nc2c1c(=O)n(Cc1cc3c(Cl)cccc3[nH]1)c(=O)n2C (single isomer, unassigned) [Example 398, (1R,2R)-2-(6-((1-((4-chloro-1H-indol-2-yl)methyl)-3,7-dimethyl-2,6-dioxo-2,3,6,7-tetrahydro-1H-purin-8-yl)amino)pyridin-2-yl)cyclopropanecarboxylic acid or (1S,2S)-2-(6-((1-((4-chloro-1H-indol-2-yl)methyl)-3,7-dimethyl-2,6-dioxo-2,3,6,7-tetrahydro-1H-purin-8-yl)amino)pyridin-2-yl)cyclopropanecarboxylic acid] | 0.01 to 1
29 | Cn1c(CCN2CCOCC2)nc2c1c(=O)n(Cc1cc3cc(Cl)ccc3[nH]1)c(=O)n2C [Example 229, 1-((5-chloro-1H-indol-2-yl)methyl)-3,7-dimethyl-8-(2-morpholinoethyl)-1H-purine-2,6(3H,7H)-dione] | 0.01 to 1
30 | Cn1c(Nc2cccc(C#N)c2)nc2c1c(=O)n(Cc1ccc(Cl)c(Cl)c1)c(=O)n2C [Example 130, 3-(1-(3,4-dichlorobenzyl)-3,7-dimethyl-2,6-dioxo-2,3,6,7-tetrahydro-1H-purin-8-ylamino)benzonitrile] | 1 to 5
